Consider 14 compounds from patent US9555137B2, “Uses of labeled HSP90 inhibitors” (Sloan-Kettering Institute for Cancer Research, priority 2011, dated 2017).

The test system of series [1] is HSP90. In words: concomitant binding to HSP90 and streptavidin in live K562 cells. The format is cell-based. The following applies: for binding in live K562 cells: 100 μM, 4 h; for HSP90-streptavidin binding with K562 cells: live K562 cells. The source says: Having shown that some of the molecules bind concomitantly to HSP90 and streptavidin, we next investigated whether this can similarly be accomplished in live cells.

Series [2] is described as follows: [124I]-PU-H71 PET in cancer patients, tumor exposure to PU-H71. The format is in vivo, human. The settings on record: human blood circulation.
A further series has as its system AML cell lines. The experiment in a line: cell killing and apoptosis in AML cell lines (Acridine Orange/Ethidium Bromide). The format is cell-based, human. The settings on record: cultured HEL cells. How it is done:
To evaluate the sensitivity spectrum of AML cell lines to HSP90 inhibitors, and to investigate a possible relationship between their genetic background and induction of apoptosis by HSP90 therapy, we made use of a varied cell panel. […]
A ten-fold, in MOLM-13 and M0-91, and two-fold, in Kasumi-1 and SKNO-1, increase in caspase-3,7 activation was observed as early as 24 h. Essentially no live cells were detected for the M0-91 cell line after 48 h of HSP90 inhibitor treatment. […]
Cells were treated for 24, 48 or 72 h with vehicle (DMSO) or inhibitors as indicated. Following staining with Acridine Orange and Ethidium Bromide (1:1 mix of 100 µg/ml), cells were visualized with a fluorescent microscope (Zeiss Axiovert 40 CFL) and counted. Percentage of apoptotic cells was determined from 200-300 cells counted in each group. The percentage of apoptotic cells was calculated as: % Apoptotic cells=(total number of cells with apoptotic nuclei/total number of cells counted)×100.

Series [3] has as its system oncogenic HSP90. The experiment in a line: PU-FITC binding in primary leukemia samples, blasts relative to normal lymphocytes (flow cytometry). The settings on record: blast crisis CML (bcCML) cells. The format is cell-based, human. On the technique in general: A flow cytometer gives signals particle by particle.
Series [4] concerns oncogenic HSP90. The experiment in a line: PU-FITC binding to EpCAM+ circulating tumor cells relative to leukocytes. The series is classed as cell-based, human. The settings on record: patient with HER2+ metastatic breast cancer. Here is the method: FIG. 20. PU-H71-FITC2 accumulation in EpCAM+ Circulating Tumor Cells: PBMC's isolated from whole blood were pre-treated with PU-FITC or controls (PU-FITC9, DMSO, 1 μM/2×10^6 cells/ml, 4 hrs). Cells were then stained with CD45, CD14 and EpCAM antibodies. (A) Cells are gated to exclude dead cells. Viable cells are then gated to determine EpCAM+ vs CD45+ cells. Monocytes are excluded from the analysis by gating the CD45+ cells further as FSC vs. CD14. (B) Histogram plots showing the PU-FITC Median florescence intensity (MFI) of CD45+CD14− cells (blue) and EpCAM+ cells (Red). The drug accumulation in EpCAM+ cells is calculated as the ratio of MFI EpCAM+/MFI CD45+CD14− (circulating tumor cells/leukocytes) after subtracting the values of the DMSO and PU-FITC9 controls (used to control for non-specific and background binding). […]
All experimental blood sampling procedures were performed under the Institutional Review Board-approved protocols at Memorial Sloan Kettering Cancer Center. […] PBMC's are isolated on ficoll gradients, cells are counted and viability determined by trypan blue dye exclusion assay. […] Values are calculated as a ratio of the MFI of Tumor (EpCAM+CD45−CD14−): MFI of EpCAM−CD45+CD14− cells. […] This allows quantitation of the FITC fluorescence intensity in molecules of equivalent soluble fluorochrome (MESF units). […]

For the next series, the system named is MOLM-13 cells. The series is classed as cell-based, human.
Series [5] deals with HSP90. The experiment in a line: 131I-PU-H71 saturation binding in intact cancer cells. The settings on record: MDA-MB-468 cells. The format is cell-based.
Text: The solutions were shaken in an orbital shaker and after 1 hr the cells were isolated and washed with ice cold Tris-buffered saline using a Brandel cell harvester. […] To calculate the percentage of HSP90, cellular HSP90 expression was quantified by using standard curves created of recombinant HSP90 purified from HeLa cells (Stressgen#ADI-SPP-770).
The conditions of series [6]: mouse, in vivo.
Text: (§1) We next determined in the brain and plasma of 3×Tg AD mice, the HSP90 inhibitor levels associated with these pharmacodynamic effects (FIG. 43C).
The next series in a line: in vivo. The following applies: 3×Tg AD, mouse, ip, 50 mg/kg, AUC 0 to 48 h.

SMILES strings stand for the structures. Read-outs that look alike come from different tables or passages of the source. A value given as a limit tells only on which side of the number the result lay.

Text for in vivo: as §1

For the compound `Nc1ncnc2c1nc(Sc1cc3c(cc1I)OCO3)n2CCCNC(=O)CCCCCNC(=O)CCCCCNC(=O)CCCC[C@@H]1SC[C@@H]2NC(=O)N[C@@H]21` [PU-H71-biotin5], in the series on HSP90 [1], the “binding in live K562 cells” value is on record as “able to permeate the cell membrane” and the “HSP90-streptavidin binding with K562 cells” value (from here on “HSP90-streptavidin binding”) is reported as “Yes”.

As for `CC(C)N(CCCn1c(Sc2cc3c(cc2I)OCO3)nc2c(N)ncnc21)C(=O)CCCCCNC(=O)CCCC[C@@H]1SC[C@@H]2NC(=O)N[C@@H]21` [PU-H71-blotin7], the “HSP90-streptavidin binding” value with HSP90 [1] was “No”.

As for `CC(C)N(CCCn1c(Sc2cc3c(cc2I)OCO3)nc2c(N)ncnc21)C(=O)CCCCCNC(=O)CCCCCNC(=O)CCCC[C@@H]1SC[C@@H]2NC(=O)N[C@@H]21` [PU-H71-biotin8], in the series with HSP90 [1], the “binding in live K562 cells” value was “able to permeate the cell membrane” and the “HSP90-streptavidin binding” value is reported as “Yes”.

Regarding `Nc1ncnc2c1nc(Sc1cc3c(cc1I)OCO3)n2CCCNC(=O)CCOCCOCCOCCOCCNC(=O)CCCC[C@@H]1SC[C@@H]2NC(=O)N[C@@H]21` [PU-H71-biotin6], the “band at approximately 90 kDa in live K562 cells” value with HSP90 [1] (0.5 μM) is listed as “still shows a faint band”. In addition, in the series with HSP90 [1], the “binding in live K562 cells” value is listed as “able to permeate the cell membrane” and the “HSP90-streptavidin binding” value is given as “Yes”.

On to `Nc1ncnc2c1nc(Sc1cc3c(cc1I)OCO3)n2CCCNCCOCCOCCOCCNC(=O)CCCC[C@@H]1SC[C@@H]2NC(=O)N[C@@H]21` [PU-H71-biotin], for which the “HSP90-streptavidin binding” value with HSP90 [1] is recorded as “No”.

For the compound `Nc1ncnc2c1nc(Sc1cc3c(cc1I)OCO3)n2CCCNC(=O)CCCCCNC(=O)CCCC[C@@H]1SC[C@@H]2NC(=O)N[C@@H]21` [PU-H71-biotin4], the “HSP90-streptavidin binding” value in the series on HSP90 [1] is recorded as “No”.

`CC(C)NCCCn1c(Sc2cc3c(cc2[124I])OCO3)nc2c(N)ncnc21` [[^124I]-PU-H71]: the “blood t1/2, rapid clearance” value in series [2] was “≈ 20 min”. For the same compound, the “tumor uptake from ROI analysis” value (4 h) is on record as 0.35±0.07 % ID/g. In addition, the “activity in ROI circumscribing the entire mouse” value (4 h PET) is 40-50 % of the administered activity. Also, under “4 h p.a.”, the “concentration in tumor relative to bone” value was determined as 9 fold, the “concentration in tumor relative to brain” value is 40 fold, the “concentration in tumor relative to heart” value is given as 10 fold and the “concentration in tumor relative to muscle” value is recorded as 18 fold. The “concentration in tumor relative to spleen” value (4 h p.a.) came to 6 fold. Under “24 h”, the “[Atumor] activity concentration in tumor” value was approximately 0.14±0.05 % ID/g and the “tumor uptake from ROI analysis” value is recorded as 0.083±0.02 % ID/g. Moreover, the “tumor uptake from ROI analysis” value (48 h) is listed as 0.058±0.02 % ID/g. Further, where the note is “72 h”, the “tumor uptake from ROI analysis” value amounted to 0.031±0.01 % ID/g. Moreover, for the setting “100 h”, the “tumor uptake from ROI analysis” value is listed as 0.024±0.008 % ID/g. Also, the maximum thyroid activity (between 4 and 28 h, no potassium iodide) is < 0.4 % of the administered activity. In addition, the “tumor-to-blood activity concentration ratio” value (by ~12 h postinjection) was not below 10. The “time by which cleared from MDA-MB-468 tumors” value (post-administration) is reported as not above 150 h.

As to `O=c1[nH]c2ccccc2n1C1CCN(Cc2ccc(-c3nc4cc5[nH]cnc5cc4nc3-c3ccccc3)cc2)CC1` [AKTi], the “cells committed to undergo apoptosis” value with AML cell lines is reported as “little to no effect”.

For the compound `CC(C)N(CCCn1c(Sc2cc3c(cc2I)OCO3)nc2c(N)ncnc21)C(=S)Nc1ccc(-c2c3ccc(=O)cc-3oc3cc(O)ccc23)c(C(=O)O)c1` [PU-H71-FITC2], in the series on oncogenic HSP90 [3], the “binding relative to normal lymphocytes” value is recorded as “over 4 fold”. Moreover, in the series with oncogenic HSP90 [4], the “binding of circulating tumor cells relative to leukocytes (CD45+CD14−)” value is given as “around 84 fold”. Besides, the “viability of MOLM-13 cells” value in the series with MOLM-13 cells is “decrease the viability of MOLM-13 cells”.

In the case of `CC(C)N(CCCn1c(Sc2cc3c(cc2I)OCO3)nc2c(N)ncnc21)C(=O)CCCC[C@@H]1SC[C@@H]2NC(=O)N[C@@H]21` [PU-H71-biotin2], the “HSP90-streptavidin binding” value with HSP90 [1] is reported as “No”.

For `CC(C)NCCCn1c(Sc2cc3c(cc2[131I])OCO3)nc2c(N)ncnc21` [^131I-PU-H71], in the series on HSP90 [5], the “available cellular binding sites bound per cell” value is reported as ≤ 5.5×10^6 and the “fraction of total cellular HSP90 bound” value was 26.6-33.5%.

As a reminder, the AUC(0-t) is the area under the concentration-time curve up to a stated or last time point. Read a low AUC(0-t) as less exposure. With `CC(C)(C)CNCCn1c(Sc2cc3c(cc2I)OCO3)nc2c(N)ncnc21` [PU-HZ151], in series [6], the “cortex AUC relative to plasma AUC” value was determined as 2.5 times. Also, the AUC(0-t) came out at 17.5 µM·h in “in vivo” (exposure of the cortex) and 7.1 µM·h in the series “in vivo” (exposure of the plasma).

Consider `Nc1ncnc2c1nc(Sc1cc3c(cc1I)OCO3)n2CCCNC(=O)CCCC[C@@H]1SC[C@@H]2NC(=O)N[C@@H]21` [PU-H71-biotin3], for which, in the series with HSP90 [1], the “HSP90-streptavidin binding” value is recorded as “No”.

Consider `CC(C)N(CCCn1c(Sc2cc3c(cc2I)OCO3)nc2c(N)ncnc21)C(=O)CCOCCOCCOCCOCCNC(=O)CCCC[C@@H]1SC[C@@H]2NC(=O)N[C@@H]21` [PU-H71-biotin9], for which, in the series with HSP90 [1], the “binding in live K562 cells” value is reported as “able to permeate the cell membrane” and the “HSP90-streptavidin binding” value is recorded as “Yes”.
